Experimental data published in the CheMixHub viscosity set.

Assay: xn = mol fraction of the nth substance listed

CCC(C)CC(C)C (configuration not stated) + C1C[C@@H]2[C@H]3CC[C@H](C3)[C@@H]2C1
viscosity [mPa·s], 100 kPa
Settings	x2 = 0.1017	x2 = 0.2008	x2 = 0.3005	x2 = 0.4002	x2 = 0.5006	x2 = 0.6001	x2 = 0.7001	x2 = 0.8012	x2 = 0.8999
293.15 K	0.538	0.616	0.717	0.847	1.007	1.216	1.478	1.84	2.322
298.15 K	0.511	0.582	0.674	0.792	0.937	1.126	1.361	1.685	2.114
303.15 K	0.487	0.552	0.636	0.744	0.876	1.048	1.261	1.552	1.937
308.15 K	0.465	0.524	0.602	0.7	0.822	0.979	1.171	1.435	1.781
313.15 K	0.445	0.5	0.571	0.662	0.772	0.916	1.092	1.331	1.645

CCC(=O)CC + CC(=O)CC(C)C
298.15 K, 101 kPa
Settings	viscosity [mPa·s]
x2 = 0.0749	0.581
x2 = 0.1609	0.575
x2 = 0.3004	0.571
x2 = 0.4466	0.566
x2 = 0.5932	0.562
x2 = 0.7509	0.558
x2 = 0.8066	0.553
x2 = 0.8789	0.548

C1CCCC1 + CC(C)=O
viscosity [mPa·s], 101.33 kPa
Settings	293.15 K	298.15 K	303.15 K
x1 = 0.0453	0.318	0.308	0.29
x1 = 0.0935	0.319	0.304	0.291
x1 = 0.1869	0.319	0.304	0.289
x1 = 0.2786	0.324	0.309	0.294
x1 = 0.3922	0.333	0.318	0.303
x1 = 0.517	0.344	0.327	0.311
x1 = 0.6026	0.357	0.338	0.321
x1 = 0.6876	0.367	0.347	0.332
x1 = 0.795	0.385	0.365	0.347
x1 = 0.9016	0.408	0.39	0.37
x1 = 0.9511	0.419	0.397	0.377

Nc1ccccc1[N+](=O)[O-] + CC(C)=O
viscosity [mPa·s], 101 kPa
Settings	298.15 K	303.15 K	308.15 K	313.15 K
x1 = 0.3297	1.229	1.142	1.059	0.9826
x1 = 0.5407	2.366	2.175	1.994	1.817

OCc1ccccc1 + CC(C)=O
viscosity [mPa·s], 101 kPa
Settings	x1 = 0.2007	x1 = 0.2986	x1 = 0.4007	x1 = 0.5002	x1 = 0.7013	x1 = 0.9003
303.15 K	0.506	0.651	0.894	1.204	2.122	3.544
308.15 K	0.495	0.632	0.861	1.11	1.857	3.118
313.15 K	0.479	0.603	0.807	1.054	1.74	2.826
